From PubChem BioAssay (NCI) come the findings set out here.

Among the test systems are OVCAR-4 ovarian; SF-268 CNS; SNB-19 CNS; CAKI-1 renal; TK-10 renal; SF-295 CNS; SF-539 CNS; COLO 205 colon; NCI/ADR-RES ovarian; DU-145 prostate; SR leukemia.
What all share (test): growth of human tumour cells (NCI), 48 h

Each structure is given as a SMILES string.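 Where inhibition never reached the appropriate level, the endpoint shown equals the highest concentration tested. Otherwise, values were interpolated linearly from a five-concentration, 48-hour dose response in 96-well plates. The concentration for full growth arrest is given as TGI.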

Regarding `CCOc1ccc(C2c3[nH]c4ccccc4c3CCN2C(=O)c2cccs2)cc1` (stereo not given), the TGI in the experiment with OVCAR-4 ovarian, with SF-268 CNS, in the experiment on SNB-19 CNS, in the experiment on CAKI-1 renal, in the experiment on TK-10 renal and in the experiment with SF-295 CNS was > 100 µM throughout. The TGI in the experiment on SF-539 CNS, with COLO 205 colon, with NCI/ADR-RES ovarian, with DU-145 prostate and in the experiment with SR leukemia was > 100 µM throughout.

In the case of `CC[C@@]1(O)C(=O)OCc2c1c(Cl)c1n(c2=O)Cc2cc3ccccc3nc2-1`, the TGI in the experiment on OVCAR-4 ovarian was 63.1 µM; in the experiment with SF-268 CNS, 67.7 µM; with SNB-19 CNS, 56.7 µM; in the experiment on CAKI-1 renal, 16.4 µM; with TK-10 renal, > 79.5 µM; with SF-295 CNS, 18 µM. For the same compound, the TGI with SF-539 CNS is 6.09 µM; in the experiment on COLO 205 colon it was > 100 µM; in the experiment with NCI/ADR-RES ovarian, 15.1 µM; in the experiment with DU-145 prostate it was 8.63 µM; with SR leukemia, > 23.7 µM.

For the compound `Cn1c(=O)nc2n(CCO)c(-c3ccccc3)c(-c3ccccc3)nc-2c1=O`, the TGI with OVCAR-4 ovarian, in the experiment with SF-268 CNS, with SNB-19 CNS, in the experiment with CAKI-1 renal, in the experiment with TK-10 renal and in the experiment with SF-295 CNS was > 100 µM throughout. In addition, the TGI in the experiment on SF-539 CNS, with COLO 205 colon, with NCI/ADR-RES ovarian, in the experiment on DU-145 prostate and in the experiment on SR leukemia was > 100 µM each time.

With `Oc1ccccc1C=Nc1ccc(Oc2ccc(Cl)cc2)c(Cl)c1`, the TGI is 66.2 µM with OVCAR-4 ovarian; 43.5 µM in the experiment on SF-268 CNS; 49.6 µM in the experiment on SNB-19 CNS; 95.4 µM in the experiment with CAKI-1 renal; > 100 µM in the experiment on TK-10 renal; 48.8 µM in the experiment on SF-295 CNS. Also, the TGI was 58.7 µM with SF-539 CNS; 41.1 µM with COLO 205 colon; 47.5 µM in the experiment with NCI/ADR-RES ovarian; > 100 µM with DU-145 prostate; 69.3 µM in the experiment with SR leukemia.

For the compound `O=c1nc2n(CCO)c(-c3ccccc3)c(-c3ccccc3)nc-2c(=O)[nH]1`, the TGI in the experiment with OVCAR-4 ovarian, in the experiment with SF-268 CNS, in the experiment with SNB-19 CNS, in the experiment on CAKI-1 renal, with TK-10 renal and in the experiment on SF-295 CNS was > 100 µM each time. Moreover, the TGI in the experiment with SF-539 CNS, with COLO 205 colon, in the experiment with NCI/ADR-RES ovarian, in the experiment with DU-145 prostate and in the experiment with SR leukemia was > 100 µM each time.

On to `CN1CC=C(OP(=O)(NCc2ccccc2)N(CCCl)CCCl)CC1` (stereo not given), for which the TGI in the experiment on OVCAR-4 ovarian, in the experiment on SF-268 CNS, with SNB-19 CNS, with CAKI-1 renal, in the experiment on TK-10 renal and in the experiment with SF-295 CNS was > 100 µM in each case. Moreover, the TGI with SF-539 CNS, with COLO 205 colon, in the experiment with NCI/ADR-RES ovarian, in the experiment on DU-145 prostate and with SR leukemia was > 100 µM each time.

Take `CCOC(=O)CCc1c(C(=O)OCC)[nH]c(/C=C2/NC(=O)C(C)=C2CC)c1C`: the TGI in the experiment with OVCAR-4 ovarian was determined as 8.91 µM; in the experiment on SF-268 CNS it was 29.2 µM; in the experiment with SNB-19 CNS, 37.2 µM; in the experiment on CAKI-1 renal, 80.2 µM; with TK-10 renal it was 88.2 µM; with SF-295 CNS, 30.6 µM. Moreover, the TGI in the experiment with SF-539 CNS was determined as 44.4 µM; in the experiment with COLO 205 colon, 33.2 µM; in the experiment on NCI/ADR-RES ovarian, 36.9 µM; in the experiment with DU-145 prostate it was 44.6 µM; with SR leukemia it was 20.4 µM.

For the compound `COc1ccc(/C=C/C(=O)NCC(NC(=O)/C=C/c2ccc(OC)c(OC)c2)C(=O)O)cc1OC` (stereo not given), the TGI in the experiment with OVCAR-4 ovarian, in the experiment with SF-268 CNS, in the experiment with SNB-19 CNS, with CAKI-1 renal, in the experiment with TK-10 renal and with SF-295 CNS was > 100 µM each time. Moreover, the TGI is > 100 µM in the experiment with SF-539 CNS; > 100 µM in the experiment on COLO 205 colon; 0.0691 µM in the experiment on NCI/ADR-RES ovarian; > 100 µM in the experiment on DU-145 prostate; > 100 µM with SR leukemia.

Consider `CCCCCCN(C(=O)Oc1ccccc1)C(C#N)c1ccccc1` (stereo not given), for which the TGI with OVCAR-4 ovarian, in the experiment with SF-268 CNS, in the experiment on SNB-19 CNS, with CAKI-1 renal, in the experiment on TK-10 renal and with SF-295 CNS was > 100 µM each time. Moreover, the TGI in the experiment with SF-539 CNS, with COLO 205 colon, in the experiment with NCI/ADR-RES ovarian, with DU-145 prostate and in the experiment with SR leukemia was > 100 µM each time.

As to `O=C(/C=C/c1ccc(O)c(O)c1)NC(CO)C(=O)O` (stereo not given), the TGI in the experiment with OVCAR-4 ovarian, in the experiment with SF-268 CNS, with SNB-19 CNS, in the experiment with CAKI-1 renal, in the experiment on TK-10 renal and in the experiment on SF-295 CNS was > 100 µM each time. The TGI was > 100 µM in the experiment with SF-539 CNS; > 100 µM with COLO 205 colon; 64.6 µM in the experiment with NCI/ADR-RES ovarian; > 100 µM in the experiment on DU-145 prostate; > 100 µM in the experiment with SR leukemia.

As to `NN/C(=N\S(=O)(=O)c1cc(Cl)c(Oc2ccc([N+](=O)[O-])cc2Cl)c(Cl)c1)Nc1ccc(Cl)cc1`, the TGI in the experiment with OVCAR-4 ovarian was found to be 57.1 µM; in the experiment on SF-268 CNS it was 34.2 µM; with SNB-19 CNS, 62.4 µM; with CAKI-1 renal it was 40.7 µM; with TK-10 renal, 56.6 µM; in the experiment with SF-295 CNS, 50.4 µM. The TGI is 31.3 µM in the experiment with SF-539 CNS; 29 µM with COLO 205 colon; 67.9 µM with NCI/ADR-RES ovarian; 38.4 µM in the experiment on DU-145 prostate; 57.7 µM in the experiment with SR leukemia.

Turning to `N#C/C(=C\c1ccc(Cl)cc1)c1nc2ccccc2c(=O)[nH]1`, the TGI with OVCAR-4 ovarian, in the experiment on SF-268 CNS, in the experiment on SNB-19 CNS, in the experiment with CAKI-1 renal, in the experiment with TK-10 renal and in the experiment with SF-295 CNS was > 100 µM each time. Besides, the TGI in the experiment with SF-539 CNS, in the experiment on COLO 205 colon, with NCI/ADR-RES ovarian, with DU-145 prostate and in the experiment on SR leukemia was > 100 µM in each case.

For `O=c1cc(-c2ccc(O)c(O)c2)oc2cc(OC3OC(CO)C(O)C(O)C3O)cc(O)c12` (stereo not given), the TGI with OVCAR-4 ovarian, in the experiment with SF-268 CNS, with SNB-19 CNS, with CAKI-1 renal, with TK-10 renal and in the experiment with SF-295 CNS was > 100 µM in each case. In addition, the TGI with SF-539 CNS, in the experiment on COLO 205 colon, in the experiment with NCI/ADR-RES ovarian, in the experiment with DU-145 prostate and in the experiment with SR leukemia was > 100 µM each time.

On to `Cc1ccc2c(c1)C(C1Cc3c(C)cccc3C1=O)OC2=O` (stereo not given), for which the TGI in the experiment with OVCAR-4 ovarian, with SF-268 CNS, with SNB-19 CNS, with CAKI-1 renal, in the experiment on TK-10 renal and in the experiment on SF-295 CNS was > 100 µM throughout. Further, the TGI in the experiment on SF-539 CNS, in the experiment with COLO 205 colon, with NCI/ADR-RES ovarian, in the experiment with DU-145 prostate and with SR leukemia was > 100 µM each time.

`Cc1sc2ncnc(NCCc3ccccc3)c2c1C`: the TGI in the experiment on OVCAR-4 ovarian was 59 µM; in the experiment on SF-268 CNS it was 60.1 µM; with SNB-19 CNS, > 100 µM; in the experiment with CAKI-1 renal, 56.7 µM; with TK-10 renal, 46.5 µM; in the experiment with SF-295 CNS, 36.9 µM. In addition, the TGI in the experiment on SF-539 CNS is 31.2 µM; in the experiment on COLO 205 colon, 24.4 µM; in the experiment on NCI/ADR-RES ovarian it was > 100 µM; with DU-145 prostate, 70.9 µM; with SR leukemia, 26.6 µM.
